No end group written: not given here.
Assays:
[1] = pH 7
[2] = Body weight, body composition and food intake in diet-induced obesity (DIO) mice; assay type: in vivo
Experimental: […] 6 mice per group with initial average body weight of 44 g were tested. Body weight, body composition, food intake, and blood glucose levels were determined periodically.
Body weight was measured before injection and at 1, 3, 5, and 7 days post-injection.
Changes in body weight of and food intake by the mice were measured 0, 1, 3, 5, 7, 8, 10, 12, and 14 days after injection. Blood glucose levels of the mice were monitored throughout the 14 days. Glucose tolerance tests were performed by injecting a 25% glucose in saline solution 1 hour or 24 hours after administration of the acylated or pegylated peptide and measuring blood glucose levels at −60, 0, 15, 30, 60, or 120 min after the glucose injection.
The acylated glucagon analogs were as follows:
C57BI/6 mice were obtained from Jackson Laboratories and fed a diabetogenic diet from Research Diets, a high sucrose diet with 58% kcal from fat. Mice were single or group-housed on a 12:12-h light-dark cycle at 22° C. with free access to food and water. All studies were approved by and performed according to the guidelines of the Institutional Animal Care and Use Committee of the University of Cincinnati.
Whole body composition (fat and lean mass) was measured using NMR technology (EchoMRI, Houston, Tex.).
The peptides were administered daily for two weeks to 11 groups of 8 C57Bl/6 mice by subcutaneous injection at a dose of 10 or 30 nmol/kg. […]

Glucagon, Cys17PEG5K: Glucagon Cys17(1-29) reacted with mPEG-Mal-5000
Percent Soluble [1]: 94%

HXQGTFTSDYSKYLDEQAAKEFICWLMNT-NH2 [Chimera-2-AIB^2 Cys^24-40 kD]
ability to lower body weight ([2]; i.p. 15 or 70 nmol/kg, 7 days post-injection): comparable ability to lower body weight

Peptide U: SEQ ID NO: 1 with Glu16, Gln17, Ala18, Lys20, Glu21, Ile23, Cys24 with 20-kd pegylation, no AIB2, no lactam (HSQGTFTSDYSKYLDEQAAKEFIC(PEG 20 kDa)WLMNT)
body weight lowering ([2]; each day for one week at 50 nmol/kg s.c.): -13.71 ± 0.92 g
